We go through six compounds from ChEMBL document CHEMBL4396910, “Endomorphin-2 analogs containing modified tyrosines: Biological and theoretical investigation of the influence on conformation and pharmacological profile” (Eur J Med Chem, 2019).

A short description of data set [1]: Retention time of the compound by RP-HPLC analysis. The data set is classed as physicochemical.
The target in data set [2] is T1, Mu-type opioid receptor (Homo sapiens, UniProt P35372). The experiment in a line: Displacement of [3H]DAMGO from human recombinant MOR expressed in CHO cell membranes incubated for 2 hrs by liquid scintillation counting method.
Data set [3] addresses Delta-type opioid receptor (Homo sapiens, UniProt P41143). In words: Displacement of [3H]deltrophin-2 from human recombinant DOR expressed in CHO cell membranes incubated for 2 hrs by liquid scintillation counting method.
Data set [4] deals with T1, Mu-type opioid receptor. In words: Agonist activity at human recombinant MOR expressed in CHO cells co-expressing C-terminally modified Galphaqi5 assessed as induction of calcium mobilization by Fluo-4AM dye-based fluorescence assay. The data set is classed as functional, cell-based. For orientation: A change in cytosolic calcium serves as a functional read-out for many receptors and channels.

The target in data set [5] is T1, Mu-type opioid receptor. The experiment in a line: Potency index, ratio of endomorphin Ki to compound Ki for human recombinant MOR expressed in CHO cell membranes using [3H]DAMGO by radioligand binding assay.
A short description of data set [6]: n-Octanol/water partition coefficient, log P of compound at 50 ug at pH 7.4 measured after 2 mins by RP-HPLC analysis. Particulars: pH 7.4, 2 min. It counts as physicochemical.
Data set [7] deals with T1, Mu-type opioid receptor. The experiment in a line: Agonist activity at human recombinant MOR expressed in CHO cells co-expressing C-terminally modified Galphaqi5 assessed as induction of calcium mobilization by Fluo-4AM dye-based fluorescence assay relative to endomorphin-2. It counts as functional, cell-based.
For data set [8], the target named is Kappa-type opioid receptor (Homo sapiens, UniProt P41145). The experiment in a line: Displacement of [3H]U-69593 from human recombinant KOR expressed in CHO cell membranes incubated for 2 hrs by liquid scintillation counting method. In general terms: In a radioligand displacement assay an active substance lowers the binding of a labelled ligand.
Sequence of Kappa-type opioid receptor (P41145 whole entry): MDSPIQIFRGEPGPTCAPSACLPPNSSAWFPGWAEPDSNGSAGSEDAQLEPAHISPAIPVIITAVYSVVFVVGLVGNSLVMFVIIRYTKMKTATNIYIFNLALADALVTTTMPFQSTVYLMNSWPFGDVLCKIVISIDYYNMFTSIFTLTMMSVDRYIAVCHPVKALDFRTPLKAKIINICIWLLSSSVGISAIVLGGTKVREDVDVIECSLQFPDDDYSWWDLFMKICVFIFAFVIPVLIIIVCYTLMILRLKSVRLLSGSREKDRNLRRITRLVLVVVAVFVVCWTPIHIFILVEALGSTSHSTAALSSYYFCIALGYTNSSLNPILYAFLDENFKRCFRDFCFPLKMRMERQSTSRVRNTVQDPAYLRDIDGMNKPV

T1 sequence (P35372 whole entry): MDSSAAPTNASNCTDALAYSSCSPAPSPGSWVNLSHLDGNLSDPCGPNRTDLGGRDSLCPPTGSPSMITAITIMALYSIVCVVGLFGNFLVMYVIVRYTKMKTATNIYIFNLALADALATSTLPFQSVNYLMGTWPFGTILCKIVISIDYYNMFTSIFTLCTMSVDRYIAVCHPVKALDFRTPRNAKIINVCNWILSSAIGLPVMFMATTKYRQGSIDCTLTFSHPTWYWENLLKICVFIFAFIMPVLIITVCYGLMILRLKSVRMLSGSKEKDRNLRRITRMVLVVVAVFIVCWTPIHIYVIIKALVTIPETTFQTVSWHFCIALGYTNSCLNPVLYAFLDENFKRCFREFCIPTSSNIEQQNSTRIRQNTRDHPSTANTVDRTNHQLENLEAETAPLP
Sequence of Delta-type opioid receptor (P41143 whole entry): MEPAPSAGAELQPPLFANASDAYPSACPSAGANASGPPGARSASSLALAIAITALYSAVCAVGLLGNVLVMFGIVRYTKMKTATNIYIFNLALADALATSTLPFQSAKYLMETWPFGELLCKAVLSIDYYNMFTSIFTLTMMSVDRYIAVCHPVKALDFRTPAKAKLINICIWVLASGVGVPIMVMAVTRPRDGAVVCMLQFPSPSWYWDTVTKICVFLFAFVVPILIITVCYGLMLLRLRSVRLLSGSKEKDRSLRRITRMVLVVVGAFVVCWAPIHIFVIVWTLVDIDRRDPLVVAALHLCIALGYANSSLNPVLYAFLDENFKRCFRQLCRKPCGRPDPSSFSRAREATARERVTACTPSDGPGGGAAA

By Ki is commonly meant a dissociation constant, usually derived from enzyme kinetics or from competition with a known ligand. Broadly, the EC50 is the concentration giving half of the maximal effect. By logP is commonly meant a log measure of how a compound divides between an organic and an aqueous phase. Lower therefore signals lower lipophilicity. `Cc1cc(O)cc(C)c1C[C@H](N)C(=O)N1CCC[C@H]1C(=O)N[C@@H](Cc1ccccc1)C(=O)N[C@@H](Cc1ccccc1)C(N)=O` came in with a Retention_time in data set [1] of 16.484 min. Besides, the inhibitory constant (Ki) at Mu-type opioid receptor [2] turned out to be 0.81 nM; in data set [3], 283 nM. In addition, the concentration for a half-maximal effect (EC50) at Mu-type opioid receptor [4] is 1.66 nM. At Mu-type opioid receptor [5], the Ratio Ki stood at 4. The log partition coefficient (logP) in data set [6] was determined as 1.98. Besides, the Intrinsic activity at Mu-type opioid receptor [7] was found to be 0.91.

Take `NC(=O)[C@H](Cc1ccccc1)NC(=O)[C@H](Cc1ccccc1)NC(=O)[C@@H]1CCCN1C(=O)[C@@H](N)Cc1ccc(O)cc1` [ENDOMORPHIN 2]: the logP in data set [6] was 1.13.

In data set [1], `COc1cc(C[C@H](N)C(=O)N2CCC[C@H]2C(=O)N[C@@H](Cc2ccccc2)C(=O)N[C@@H](Cc2ccccc2)C(N)=O)cc(OC)c1O` gave a Retention_time of 14.83 min. For the same compound, the Ki on Mu-type opioid receptor [2] was determined as 4.38 nM; in data set [3], 10600 nM; in data set [8], 4480 nM. Besides, on Mu-type opioid receptor [4], the concentration for a half-maximal effect (EC50) is 7.94 nM. In data set [6], this compound came in with a logP of 0.67. Further, the Intrinsic activity at Mu-type opioid receptor [7] came out at 1.1.

Turning to `NC(=O)[C@H](Cc1ccccc1)NC(=O)[C@H](Cc1ccccc1)NC(=O)[C@@H]1CCCN1C(=O)[C@@H](N)Cc1cccc(O)c1`, the Retention_time in data set [1] is recorded as 15.168 min. The inhibition constant (Ki) was 18.9 nM at Mu-type opioid receptor [2], 12700 nM in data set [3] and 9150 nM in data set [8]. Moreover, at Mu-type opioid receptor [4], the 50% effective concentration (EC50) was 44.7 nM. The same compound registered a logP in data set [6] of 1.37. For the same compound, at Mu-type opioid receptor [7], the Intrinsic activity worked out at 0.87.

`Cc1cc(O)c(Cl)c(C)c1C[C@H](N)C(=O)N1CCC[C@H]1C(=O)N[C@@H](Cc1ccccc1)C(=O)N[C@@H](Cc1ccccc1)C(N)=O` registered a Retention_time in data set [1] of 16.122. For the same compound, the results for the inhibition constant Ki (on Mu-type opioid receptor [2]; in data set [3]; in data set [8]) were 0.26 nM, 900 nM and 37.3 nM, respectively. The 50% effective concentration (EC50) at Mu-type opioid receptor [4] was 0.617 nM. In addition, the lipophilicity (logP) in data set [6] was 1.8. Moreover, the Intrinsic activity at Mu-type opioid receptor [7] amounted to 0.92.

In the case of `Cc1cc(C[C@H](N)C(=O)N2CCC[C@H]2C(=O)N[C@@H](Cc2ccccc2)C(=O)N[C@@H](Cc2ccccc2)C(N)=O)cc(C)c1O`, in data set [1], the Retention_time is reported as 16.508 min. The Ki came to 4.98 nM on Mu-type opioid receptor [2], 5260 nM in data set [3] and 4650 nM in data set [8]. Further, the EC50 on Mu-type opioid receptor [4] is 9.55 nM. Further, the lipophilicity (logP) in data set [6] was determined as 1.78. In addition, at Mu-type opioid receptor [7], the Intrinsic activity worked out at 1.04.
